In publication PMC9948168, “Vanillin-Based Indolin-2-one Derivative Bearing a Pyridyl Moiety as a Promising Anti-Breast Cancer Agent via Anti-Estrogenic Activity” (ACS Omega, 2023):

How the values were obtained:
Assay in all cases: NCI-60 one-dose screening
Assay type in all cases: cell-based
U251 = details: Homo sapiens, U-251, U251, CNS Cancer, read-out: GI (%)
DU-145 = details: Homo sapiens, DU-145, Prostate Cancer, read-out: GI (%)
MOLT-4 = details: Homo sapiens, MOLT-4, Leukemias, read-out: GI (%)
HL-60(TB) = details: Homo sapiens, Leukemias, read-out: GI (%)
KM12 = details: Homo sapiens, KM12, Colon Cancer, read-out: GI (%)
SN12C = details: Homo sapiens, Renal Cancer, read-out: GI (%)
CCRF-CEM = details: Homo sapiens, Leukemias, read-out: GI (%)
SK-MEL-5 = details: Homo sapiens, SK-MEL-5, Melanoma, read-out: GI (%)
ACHN = details: Homo sapiens, Renal Cancer, read-out: GI (%)
HT29 = details: Homo sapiens, HT-29, HT29, Colon Cancer, read-out: GI (%)
OVCAR-5 = details: Homo sapiens, OVCAR-5, Ovarian Cancer, read-out: GI (%)
SNB-75 = details: Homo sapiens, SNB-75, CNS Cancer, read-out: GI (%)
T-47D = details: Homo sapiens, T47D, Breast Cancer, read-out: GI (%)
NCI/ADR-RES = details: Homo sapiens, Ovarian Cancer, read-out: GI (%)
BT-549 = details: Homo sapiens, BT-549, Breast Cancer, read-out: GI (%)
NCI-H322M = details: Homo sapiens, Non-Small Cell Lung Cancer, read-out: GI (%)
HS 578T = details: Homo sapiens, Breast Cancer, read-out: GI (%)
NCI-H226 = details: Homo sapiens, NCI-H226, Non-Small Cell Lung Cancer, read-out: GI (%)
SK-MEL-28 = details: Homo sapiens, SK-MEL-28, Melanoma, read-out: GI (%)
RPMI-8226 = details: Homo sapiens, RPMI-8226, Leukemias, read-out: GI (%)
SR = details: Homo sapiens, Leukemias, read-out: GI (%)
EKVX = details: Homo sapiens, Non-Small Cell Lung Cancer, read-out: GI (%)
HOP-92 = details: Homo sapiens, HOP-92, Non-Small Cell Lung Cancer, read-out: GI (%)
SNB-19 = details: Homo sapiens, SNB-19, CNS Cancer, read-out: GI (%)
UACC-257 = details: Homo sapiens, UACC-257, Melanoma, read-out: GI (%)
IGROV1 = details: Homo sapiens, IGROV-1, IGROV1, Ovarian Cancer, read-out: GI (%)
SF-295 = details: Homo sapiens, SF-295, CNS Cancer, read-out: GI (%)
COLO 205 = details: Homo sapiens, COLO 205, Colon Cancer, read-out: GI (%)
NCI-H522 = details: Homo sapiens, NCI-H522, Non-Small Cell Lung Cancer, read-out: GI (%)
LOX IMVI = details: Homo sapiens, Melanoma, read-out: GI (%)
MALME-3M = details: Homo sapiens, Melanoma, read-out: GI (%)
HOP-62 = details: Homo sapiens, HOP-62, Non-Small Cell Lung Cancer, read-out: GI (%)
SK-OV-3 = details: Homo sapiens, SK-OV-3, Ovarian Cancer, read-out: GI (%)
HCT-116 = details: Homo sapiens, HCT-116, Colon Cancer, read-out: GI (%)
NCI-H460 = details: Homo sapiens, NCI-H460, Non-Small Cell Lung Cancer, read-out: GI (%)
NCI-H23 = details: Homo sapiens, NCI-H23, Non-Small Cell Lung Cancer, read-out: GI (%)

`COc1cc(/C=C2/C(=O)Nc3cc(Cl)ccc32)ccc1OCc1ccccc1` [6k] was tested, and the inhibition at 10 µM (U251) was -7.73%, the inhibition at 10 µM (DU-145) was -4.08% and the inhibition at 10 µM (MOLT-4) was 4.75%. The inhibition at 10 µM (HL-60(TB)) was -20.2%, the inhibition at 10 µM (KM12) was 1.29% and the inhibition at 10 µM (SN12C) was 3.34%. For the same compound, the inhibition at 10 µM (CCRF-CEM) was -1.12%, the inhibition at 10 µM (SK-MEL-5) was -1.43% and the inhibition at 10 µM (ACHN) was 7.71%. It also gave an inhibition at 10 µM (HT29) of -1.24%, an inhibition at 10 µM (OVCAR-5) of 3.05% and an inhibition at 10 µM (SNB-75) of 3.2%. For the same compound, the inhibition at 10 µM (T-47D) was -0.39%, the inhibition at 10 µM (NCI/ADR-RES) was -3.53% and the inhibition at 10 µM (BT-549) was 16.8%. It also gave an inhibition at 10 µM (NCI-H322M) of 0.99%, an inhibition at 10 µM (HS 578T) of 0.08% and an inhibition at 10 µM (NCI-H226) of 1.98%. For the same compound, the inhibition at 10 µM (SK-MEL-28) was -6.39%, the inhibition at 10 µM (RPMI-8226) was -4.86% and the inhibition at 10 µM (SR) was 6.78%. The inhibition at 10 µM (EKVX) was 17.2%, the inhibition at 10 µM (HOP-92) was 4.54% and the inhibition at 10 µM (SNB-19) was 1.7%. For the same compound, the inhibition at 10 µM (UACC-257) was -10.4%, the inhibition at 10 µM (IGROV1) was 23.4% and the inhibition at 10 µM (SF-295) was -1.02%. The inhibition at 10 µM (COLO 205) was -16.6%, the inhibition at 10 µM (NCI-H522) was 4.41% and the inhibition at 10 µM (LOX IMVI) was 16.1%. For the same compound, the inhibition at 10 µM (MALME-3M) was 4.05%, the inhibition at 10 µM (HOP-62) was 0.16% and the inhibition at 10 µM (SK-OV-3) was -10.9%. It also gave an inhibition at 10 µM (HCT-116) of -2.15%, an inhibition at 10 µM (NCI-H460) of 1.83% and an inhibition at 10 µM (NCI-H23) of 2.27%.

With `COc1ccc(COc2ccc(/C=C3/C(=O)Nc4cc(Cl)ccc43)cc2OC)cc1` [6n] the inhibition at 10 µM (U251) was -6.11%, the inhibition at 10 µM (DU-145) was 3.17% and the inhibition at 10 µM (MOLT-4) was 0.87%. For the same compound, the inhibition at 10 µM (HL-60(TB)) was -13.9%, the inhibition at 10 µM (KM12) was 0.42% and the inhibition at 10 µM (SN12C) was 4.32%. For the same compound, the inhibition at 10 µM (CCRF-CEM) was 5.65%, the inhibition at 10 µM (SK-MEL-5) was 3.06% and the inhibition at 10 µM (ACHN) was 5.82%. For the same compound, the inhibition at 10 µM (HT29) was -0.76%, the inhibition at 10 µM (OVCAR-5) was 2.3% and the inhibition at 10 µM (SNB-75) was -12.8%. The inhibition at 10 µM (T-47D) was 12.8%, the inhibition at 10 µM (NCI/ADR-RES) was 0.37% and the inhibition at 10 µM (BT-549) was 0.06%. It also gave an inhibition at 10 µM (NCI-H322M) of 3.24%, an inhibition at 10 µM (HS 578T) of 0.21% and an inhibition at 10 µM (NCI-H226) of 6.67%. The inhibition at 10 µM (SK-MEL-28) was -2.94%, the inhibition at 10 µM (RPMI-8226) was 9.52% and the inhibition at 10 µM (SR) was 0.64%. For the same compound, the inhibition at 10 µM (EKVX) was 13.1%, the inhibition at 10 µM (HOP-92) was -8.09% and the inhibition at 10 µM (SNB-19) was 1.46%. It also gave an inhibition at 10 µM (UACC-257) of -21.9%, an inhibition at 10 µM (IGROV1) of 20.1% and an inhibition at 10 µM (SF-295) of -2.14%. It also gave an inhibition at 10 µM (COLO 205) of -11.1%, an inhibition at 10 µM (NCI-H522) of 11.5% and an inhibition at 10 µM (LOX IMVI) of -2.89%. It also gave an inhibition at 10 µM (MALME-3M) of 2.77%, an inhibition at 10 µM (HOP-62) of 4.49% and an inhibition at 10 µM (SK-OV-3) of -7.5%. The inhibition at 10 µM (HCT-116) was 11.1%, the inhibition at 10 µM (NCI-H460) was 20.7% and the inhibition at 10 µM (NCI-H23) was 2.17%.

`COc1cc(/C=C2/C(=O)Nc3cc(Cl)ccc32)ccc1OCc1ccccn1` [6o] was tested, and the inhibition at 10 µM (U251) was -7.72%, the inhibition at 10 µM (DU-145) was -7.21% and the inhibition at 10 µM (MOLT-4) was 3.45%. For the same compound, the inhibition at 10 µM (HL-60(TB)) was -17.3%, the inhibition at 10 µM (KM12) was 2.85% and the inhibition at 10 µM (SN12C) was -4.12%. It also gave an inhibition at 10 µM (CCRF-CEM) of -8.83%, an inhibition at 10 µM (SK-MEL-5) of 1.29% and an inhibition at 10 µM (ACHN) of 5.07%. It also gave an inhibition at 10 µM (HT29) of -15.4%, an inhibition at 10 µM (OVCAR-5) of 2.11% and an inhibition at 10 µM (SNB-75) of -0.58%. It also gave an inhibition at 10 µM (T-47D) of 0.18%, an inhibition at 10 µM (NCI/ADR-RES) of -7.14% and an inhibition at 10 µM (BT-549) of 3.31%. The inhibition at 10 µM (NCI-H322M) was 0.51%, the inhibition at 10 µM (HS 578T) was -1.2% and the inhibition at 10 µM (NCI-H226) was 5.24%. The inhibition at 10 µM (SK-MEL-28) was -7.43%, the inhibition at 10 µM (RPMI-8226) was -0.91% and the inhibition at 10 µM (SR) was 6.43%. For the same compound, the inhibition at 10 µM (EKVX) was 25.3%, the inhibition at 10 µM (HOP-92) was -5.39% and the inhibition at 10 µM (SNB-19) was -1.66%. It also gave an inhibition at 10 µM (UACC-257) of -22.8%, an inhibition at 10 µM (IGROV1) of 25.2% and an inhibition at 10 µM (SF-295) of -1.12%. The inhibition at 10 µM (COLO 205) was -18.8%, the inhibition at 10 µM (NCI-H522) was -1.8% and the inhibition at 10 µM (LOX IMVI) was 2.38%. For the same compound, the inhibition at 10 µM (MALME-3M) was 4.92%, the inhibition at 10 µM (HOP-62) was 3.58% and the inhibition at 10 µM (SK-OV-3) was -7.09%. It also gave an inhibition at 10 µM (HCT-116) of 2.05%, an inhibition at 10 µM (NCI-H460) of -3.23% and an inhibition at 10 µM (NCI-H23) of 4.55%.
